From patent publication US20230372350A1, “ASTROCYTIC TRPA1 CHANNEL INHIBITION AS A NOVEL NEUROPROTECTIVE THERAPEUTIC TARGET IN THE PRODROMAL PHASES OF ALZHEIMER'S DISEASE” (priority 2020, published 2023)

Columns and labels:
[1] = system: trigeminal neuropathy-like pain behaviors; settings: mice, subcutaneous (100 μg/10 μl) or intragastric (300 mg/kg); Trevisan et al. 2016; cited from earlier work
[2] = system: stratum radiatum synapses of APP/PS1-21 and WT mice; assay: Chronic intraperitoneal treatment: electron microscopy of astrocyte coverage of synapses; type: in vivo, mouse; settings: 3-months old, i.p. treatment
Protocol: This solution is then diluted to 1 μg/μl in an isotonic solution containing 1% Pluronic F-127 and 0.9% NaCl. The animals are injected daily intraperitoneally at a dose of 5 mg/kg of body mass. Sterile 0.5 ml BD MicroFine syringes with no dead volume, equipped with a 30G (0.3 mm) needle are used for the injections. The injection is started from the 14th postnatal day (appearance of the expression of the Thy1gene promoter in the hippocampus, triggering the overexpression of Aβ in the APP/PS1-21 murine model) Hippocampi were dissected and fixed with 1.7% of glutaraldehyde in 0.1 M phosphate buffer at pH 7.4 for 48 hours at room temperature. The CA1 region was dissected under a binocular magnifying glass and fixed again for 2 hours in the same solution. Samples were then washed with buffer and post-fixed with 1% of osmium tetroxide and 0.1M phosphate buffer with pH 7.2 for 1 hour at 4° C. After thorough washing with water, the cells were then stained with 1% of uranil acetate with pH 4 in water for 1 hour at 4° C. before being dehydrated by successive alcohol baths (30%-60%-90%-100%-100%-100%) and incubated with a 1:1 epon/ethanol at 100% mixture for 1 hour and several baths of fresh epoxy resin (Sigma-Aldrich, France) for 3 hours. Finally, the samples were included in a capsule filled with resin which was allowed to polymerize for 72 h at 60° C. […]

APP/PS1-21 and WT mice = assay: Chronic intraperitoneal treatment: Barnes maze; type: in vivo, mouse; settings: 6-months old
Protocol: This solution is then diluted to 1 μg/μl in an isotonic solution containing 1% Pluronic F-127 and 0.9% NaCl. The animals are injected daily intraperitoneally at a dose of 5 mg/kg of body mass. Sterile 0.5 ml BD MicroFine syringes with no dead volume, equipped with a 30G (0.3 mm) needle are used for the injections. The injection is started from the 14th postnatal day (appearance of the expression of the Thy1gene promoter in the hippocampus, triggering the overexpression of Aβ in the APP/PS1-21 murine model) The mice were placed in the center of a well-lit open platform (BioSeb, diameter 120 cm). The platform includes 20 holes (diameter 5 cm) with an escape box (target) attached below any of the holes. On the first day of training, the mice were first placed in the middle of the platform and gently guided to the target after 5 minutes of free exploration. Once the mice entered the escape box, they remained there for 1 minute before being returned to their cage. During the 3 days of the training/acquisition phase, the mice performed 3 trials per day with an interval between trials of 20 minutes. The mice had 180 seconds to find the escape box or were gently guided thereto. On day 4 (test day), the escape box was removed and the mice were allowed to freely explore the maze for 60 seconds. The time taken to reach the target (latency) and the exploration time of the target area (target hole±1) were analyzed. All data were recorded and analyzed with EthoVision XT9 (Noldus). The working memory is perhaps one of the most studied aspects of memory impairment in Alzheimer's disease. The inventors administered daily the TRPA1 channel specific inhibitor (HC030031) or the carrier intraperitoneally (5 mg/kg of body mass) from the 14th postnatal day up to 6 months in APP/PS1-21 and wild-type WT mice.

[3] = APP/PS1-21 mice, 5 mg/kg i.p. daily from 14th postnatal day
[4] = WT control mice, chronic treatment

CC(C)c1ccc(NC(=O)Cn2cnc3c2c(=O)n(C)c(=O)n3C)cc1 [HC030031, 2-(1,3-Dimethyl-2,6-dioxo-1,2,3,6-tetrahydro-7H-purin-7-yl)-N-(4-isopropylphenyl)acetamide]
trigeminal neuropathy-like pain behaviors [1]: abolished | synapses enveloped (astrocyte coverage of stratum radiatum synapses) ([2]; APP/PS1 mice): 64.0±1.5% | synapses enveloped (astrocyte coating) ([2]; WT mice): 62.7±2.7% | area under the curve for latency to reach the escape box (learning phase, working memory) (APP/PS1-21 and WT mice; [3]): 595.9±77.2 | first latency to the target area during the trial (reference memory) (APP/PS1-21 and WT mice; [3]): 18.5 ± 4.2 s | reference memory performance (APP/PS1-21 and WT mice; [4]): no impact | working memory performance (APP/PS1-21 and WT mice; [4]): no impact
